From the NIST ThermoML archive (doi:10.1016/j.tca.2015.02.004)
Several values for one entry are separate records, joined by “and”; a condition that tells them apart may be missing. Identical values can stand only once.

Legend:
[1] = Liquid, Diaphragm manometer
[2] = Boiling temperature at pressure P; conditions: Liquid, Distillation

C[Si](C)(C)N[Si](C)(C)C [1,1,1,3,3,3-hexamethyldisilazane]
[1]
Conditions | vapor or sublimation pressure [kPa]
290.8 K | 1.51
290.9 K | 1.54
292 K | 1.68
293.5 K | 1.73
301.1 K | 2.71
301.5 K | 2.68
311.4 K | 4.25
312.4 K | 4.36
320.2 K | 5.93
321.2 K | 6.6
329.7 K | 9.72
330.9 K | 10.21
331.8 K | 10.3
340.1 K | 14.79
341.1 K | 15.35
349.8 K | 20.68
352.7 K | 23.41
360.3 K | 30.3
360.5 K | 31.34
370 K | 42.85
371.8 K | 45.32
382.2 K | 59.76

C[Si](C)(C)NCc1ccccc1 [(benzylamino)trimethylsilane]
Conditions | Boiling temperature at pressure P [°C]
[2], 2 kPa | 98.00

C[Si](C)(C)N(c1ccccc1)[Si](C)(C)C [N,N-bis(trimethylsilyl)aniline]
Conditions | Boiling temperature at pressure P [°C] | vapor or sublimation pressure
[1], 321.8 K | – | 0.15 kPa
[1], 322.1 K | – | 0.2 kPa
[1], 330.7 K | – | 0.29 kPa
[1], 331.2 K | – | 0.24 kPa
[1], 331.4 K | – | 0.26 kPa
[1], 341.9 K | – | 0.36 kPa
[1], 351.2 K | – | 0.59 kPa and 0.61 kPa
[1], 351.4 K | – | 0.59 kPa
[1], 361.1 K | – | 0.96 kPa
[1], 361.2 K | – | 1 kPa
[1], 371.2 K | – | 1.56 kPa
[1], 380.7 K | – | 2.34 kPa
[1], 381.2 K | – | 2.32 kPa
[1], 390.9 K | – | 3.54 kPa
[1], 400.5 K | – | 5.22 kPa
[1], 400.7 K | – | 5.19 kPa
[1], 400.9 K | – | 5.65 kPa
[1], 410.7 K | – | 7.51 kPa
[1], 411 K | – | 7.35 kPa
[1], 421.4 K | – | 10.96 kPa
[1], 421.5 K | – | 10.91 kPa
[1], 421.9 K | – | 10.9 kPa
[1], 431.7 K | – | 15.13 kPa
[1], 441.2 K | – | 20.51 kPa
[1], 441.6 K | – | 20.37 kPa
[1], 451.2 K | – | 27.3 kPa
[2], 0.267 kPa | 60.00 | –

C[Si](C)(C)Nc1ccccc1 [trimethyl(phenylamino)silane]
Conditions | Boiling temperature at pressure P [°C] | vapor or sublimation pressure [kPa]
[1], 311.6 K | – | 0.2
[1], 312.8 K | – | 0.24
[1], 332.5 K | – | 0.65
[1], 350.9 K | – | 1.64
[1], 371.8 K | – | 3.76
[1], 372.1 K | – | 3.79
[1], 390 K | – | 7.38
[1], 391.4 K | – | 7.86
[1], 391.6 K | – | 7.85
[1], 410.6 K | – | 14.88
[1], 411.6 K | – | 15.98
[1], 421.7 K | – | 21.19
[1], 422.7 K | – | 22.43
[1], 431.8 K | – | 28.53
[1], 432.7 K | – | 30.61
[1], 446.1 K | – | 43.07
[1], 452.1 K | – | 52.87
[1], 455.2 K | – | 55.6
[2], 0.4 kPa | 56.00 | –

C[Si](C)(C)c1ccccc1 [trimethylphenylsilane]
Conditions | Boiling temperature at pressure P [°C] | vapor or sublimation pressure [kPa]
[1], 296.7 K | – | 0.33
[1], 297.7 K | – | 0.29
[1], 298.8 K | – | 0.31
[1], 322.2 K | – | 1.14
[1], 322.7 K | – | 1.28
[1], 333.2 K | – | 2.02
[1], 343.7 K | – | 3.24
[1], 352.2 K | – | 4.73
[1], 352.8 K | – | 4.91
[1], 371.9 K | – | 10.63
[1], 372.2 K | – | 11.04
[1], 373.2 K | – | 10.82
[1], 382.9 K | – | 15.75
[1], 391 K | – | 21.76
[1], 392.1 K | – | 21.75
[1], 392.4 K | – | 22.02
[1], 401.1 K | – | 29.35
[2], 1.866 kPa | 56.00 | –
